Source: ChEMBL document CHEMBL1141596, “A new class of bradykinin B1 receptor antagonists with high oral bioavailability and minimal PXR activity” (Bioorg Med Chem Lett, 2008)

system: not listed separately; assay: Oral bioavailability in Sprague-Dawley rat at 10 mg/kg; assay type: ADME, organism-based; settings: in vivo

Row | Structure (SMILES) | bioavailability
1 | Cc1cc(C(=O)NC2(C(=O)N[C@H](C)c3ncc(-c4cc(Cl)cc(Cl)c4OCC(F)F)cc3F)CC2)no1 | 30%
2 | COc1cc(C(=O)NC2(C(=O)N[C@H](C)c3ncc(-c4cc(Cl)cc(Cl)c4OCC(F)F)cc3F)CC2)on1 | 44%
3 | C[C@@H](NC(=O)C1(NC(=O)C(F)(F)F)CC1)c1ccc(-c2cc(Cl)cc(Cl)c2OCC(F)(F)F)cc1F | 35%
4 | CCOc1c(Cl)cc(Cl)cc1-c1cnc([C@@H](C)NC(=O)C2(NC(=O)c3ccno3)CC2)c(F)c1 | 7%

biological target: T1, B1 bradykinin receptor (Homo sapiens) (UniProt P46663); assay: Ex vivo receptor occupancy at bradykinin B1 receptor; settings: not given
T1 sequence (whole entry): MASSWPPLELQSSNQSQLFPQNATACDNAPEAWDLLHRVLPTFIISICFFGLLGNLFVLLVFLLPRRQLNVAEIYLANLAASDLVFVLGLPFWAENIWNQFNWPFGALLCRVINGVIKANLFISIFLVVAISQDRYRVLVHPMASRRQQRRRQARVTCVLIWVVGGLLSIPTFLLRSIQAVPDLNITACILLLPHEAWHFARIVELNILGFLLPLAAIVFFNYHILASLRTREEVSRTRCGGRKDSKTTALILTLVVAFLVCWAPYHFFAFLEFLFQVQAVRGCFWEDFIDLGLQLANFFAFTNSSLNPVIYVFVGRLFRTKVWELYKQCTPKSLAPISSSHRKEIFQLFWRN

Row | Structure (SMILES) | Occ90
5 | Cc1cc(C(=O)NC2(C(=O)N[C@H](C)c3ncc(-c4cc(Cl)cc(Cl)c4OCC(F)F)cc3F)CC2)no1 | 940 nM
6 | COc1cc(C(=O)NC2(C(=O)N[C@H](C)c3ncc(-c4cc(Cl)cc(Cl)c4OCC(F)F)cc3F)CC2)on1 | 540 nM
7 | CCOc1c(Cl)cc(Cl)cc1-c1cnc([C@@H](C)NC(=O)C2(NC(=O)c3ccno3)CC2)c(F)c1 | 380 nM

system: not listed separately; assay: Apparent permeability by cell based assay; assay type: ADME; settings: not told

Row | Structure (SMILES) | Papp
8 | Cc1cc(C(=O)NC2(C(=O)N[C@H](C)c3ncc(-c4cc(Cl)cc(Cl)c4OCC(F)F)cc3F)CC2)no1 | 23 ×10⁻⁶ cm/s
9 | COc1cc(C(=O)NC2(C(=O)N[C@H](C)c3ncc(-c4cc(Cl)cc(Cl)c4OCC(F)F)cc3F)CC2)on1 | 28 ×10⁻⁶ cm/s
10 | C[C@@H](NC(=O)C1(NC(=O)C(F)(F)F)CC1)c1ccc(-c2cc(Cl)cc(Cl)c2OCC(F)(F)F)cc1F | 6.3 ×10⁻⁶ cm/s

system: not listed separately; assay: Clearance in Sprague-Dawley rat at 10 mg/kg, po or 2 mg/kg, iv; assay type: ADME, organism-based; settings: in vivo

Row | Structure (SMILES) | clearance
11 | Cc1cc(C(=O)NC2(C(=O)N[C@H](C)c3ncc(-c4cc(Cl)cc(Cl)c4OCC(F)F)cc3F)CC2)no1 | 5.1 mL/min/kg
12 | COc1cc(C(=O)NC2(C(=O)N[C@H](C)c3ncc(-c4cc(Cl)cc(Cl)c4OCC(F)F)cc3F)CC2)on1 | 2.4 mL/min/kg
13 | C[C@@H](NC(=O)C1(NC(=O)C(F)(F)F)CC1)c1ccc(-c2cc(Cl)cc(Cl)c2OCC(F)(F)F)cc1F | 1.1 mL/min/kg
14 | CCOc1c(Cl)cc(Cl)cc1-c1cnc([C@@H](C)NC(=O)C2(NC(=O)c3ccno3)CC2)c(F)c1 | 10 mL/min/kg

system: not listed separately; assay: Half life in Sprague-Dawley rat at 10 mg/kg, po or 2 mg/kg, iv; assay type: ADME, organism-based; settings: in vivo

Row | Structure (SMILES) | half-life
15 | Cc1cc(C(=O)NC2(C(=O)N[C@H](C)c3ncc(-c4cc(Cl)cc(Cl)c4OCC(F)F)cc3F)CC2)no1 | 3 h
16 | COc1cc(C(=O)NC2(C(=O)N[C@H](C)c3ncc(-c4cc(Cl)cc(Cl)c4OCC(F)F)cc3F)CC2)on1 | 4.5 h
17 | C[C@@H](NC(=O)C1(NC(=O)C(F)(F)F)CC1)c1ccc(-c2cc(Cl)cc(Cl)c2OCC(F)(F)F)cc1F | 27 h
18 | CCOc1c(Cl)cc(Cl)cc1-c1cnc([C@@H](C)NC(=O)C2(NC(=O)c3ccno3)CC2)c(F)c1 | 1.9 h

biological target: T2, B1 bradykinin receptor (Homo sapiens, UniProt P46663); assay: Binding affinity to human bradykinin B1 receptor expressed in rat CNS; settings: not given
T2 sequence (P46663 whole entry): T1 sequence (whole entry)

Row | Structure (SMILES) | Ki
19 | Cc1cc(C(=O)NC2(C(=O)N[C@H](C)c3ncc(-c4cc(Cl)cc(Cl)c4OCC(F)F)cc3F)CC2)no1 | 1400 pM
20 | COc1cc(C(=O)NC2(C(=O)N[C@H](C)c3ncc(-c4cc(Cl)cc(Cl)c4OCC(F)F)cc3F)CC2)on1 | 500 pM
21 | C[C@@H](NC(=O)C1(NC(=O)C(F)(F)F)CC1)c1ccc(-c2cc(Cl)cc(Cl)c2OCC(F)(F)F)cc1F | 1800 pM
22 | CCOc1c(Cl)cc(Cl)cc1-c1cnc([C@@H](C)NC(=O)C2(NC(=O)c3ccno3)CC2)c(F)c1 | 600 pM

system: not listed separately; assay: Clearance in rhesus monkey at 3 mg/kg, po or 1 mg/kg, iv; assay type: ADME, organism-based, Macaca mulatta; settings: in vivo

Row | Structure (SMILES) | clearance
23 | Cc1cc(C(=O)NC2(C(=O)N[C@H](C)c3ncc(-c4cc(Cl)cc(Cl)c4OCC(F)F)cc3F)CC2)no1 | 9.1 mL/min/kg
24 | COc1cc(C(=O)NC2(C(=O)N[C@H](C)c3ncc(-c4cc(Cl)cc(Cl)c4OCC(F)F)cc3F)CC2)on1 | 1.6 mL/min/kg
25 | CCOc1c(Cl)cc(Cl)cc1-c1cnc([C@@H](C)NC(=O)C2(NC(=O)c3ccno3)CC2)c(F)c1 | 15 mL/min/kg

system: not listed separately; assay: Oral bioavailability in Mongrel dog at 3 mg/kg; assay type: ADME, organism-based, Canis lupus familiaris; settings: in vivo

Row | Structure (SMILES) | bioavailability
26 | Cc1cc(C(=O)NC2(C(=O)N[C@H](C)c3ncc(-c4cc(Cl)cc(Cl)c4OCC(F)F)cc3F)CC2)no1 | 21%
27 | COc1cc(C(=O)NC2(C(=O)N[C@H](C)c3ncc(-c4cc(Cl)cc(Cl)c4OCC(F)F)cc3F)CC2)on1 | 94%
28 | CCOc1c(Cl)cc(Cl)cc1-c1cnc([C@@H](C)NC(=O)C2(NC(=O)c3ccno3)CC2)c(F)c1 | 55%

system: not listed separately; assay: Oral bioavailability in rhesus monkey at 3 mg/kg; assay type: ADME, organism-based, Macaca mulatta; settings: in vivo

Row | Structure (SMILES) | bioavailability
29 | Cc1cc(C(=O)NC2(C(=O)N[C@H](C)c3ncc(-c4cc(Cl)cc(Cl)c4OCC(F)F)cc3F)CC2)no1 | 25%
30 | COc1cc(C(=O)NC2(C(=O)N[C@H](C)c3ncc(-c4cc(Cl)cc(Cl)c4OCC(F)F)cc3F)CC2)on1 | 93%
31 | CCOc1c(Cl)cc(Cl)cc1-c1cnc([C@@H](C)NC(=O)C2(NC(=O)c3ccno3)CC2)c(F)c1 | 3%

system: not listed separately; assay: Half life in Mongrel dog at 1 mg/kg, iv; assay type: ADME, organism-based, Canis lupus familiaris; set-up: dose 1 mg/kg, route intravenous; settings: in vivo

Row | Structure (SMILES) | half-life
32 | Cc1cc(C(=O)NC2(C(=O)N[C@H](C)c3ncc(-c4cc(Cl)cc(Cl)c4OCC(F)F)cc3F)CC2)no1 | 9.4 h
33 | COc1cc(C(=O)NC2(C(=O)N[C@H](C)c3ncc(-c4cc(Cl)cc(Cl)c4OCC(F)F)cc3F)CC2)on1 | 21 h
34 | CCOc1c(Cl)cc(Cl)cc1-c1cnc([C@@H](C)NC(=O)C2(NC(=O)c3ccno3)CC2)c(F)c1 | 4.5 h

system: not listed separately; assay: Half life in rhesus monkey at 3 mg/kg, po or 1 mg/kg, iv; assay type: ADME, organism-based, Macaca mulatta; settings: in vivo

Row | Structure (SMILES) | half-life
35 | Cc1cc(C(=O)NC2(C(=O)N[C@H](C)c3ncc(-c4cc(Cl)cc(Cl)c4OCC(F)F)cc3F)CC2)no1 | 1.6 h
36 | COc1cc(C(=O)NC2(C(=O)N[C@H](C)c3ncc(-c4cc(Cl)cc(Cl)c4OCC(F)F)cc3F)CC2)on1 | 6.2 h
37 | CCOc1c(Cl)cc(Cl)cc1-c1cnc([C@@H](C)NC(=O)C2(NC(=O)c3ccno3)CC2)c(F)c1 | 1.2 h

system: not listed separately; assay: Ratio of permeability from basolateral to apical over apical to basolateral side in P-gp expressing cells; settings: not given

Row | Structure (SMILES) | Ratio
38 | Cc1cc(C(=O)NC2(C(=O)N[C@H](C)c3ncc(-c4cc(Cl)cc(Cl)c4OCC(F)F)cc3F)CC2)no1 | 1.5
39 | COc1cc(C(=O)NC2(C(=O)N[C@H](C)c3ncc(-c4cc(Cl)cc(Cl)c4OCC(F)F)cc3F)CC2)on1 | 2

biological target: T3, PXR (Nuclear receptor subfamily 1 group I member 2) (Homo sapiens, UniProt O75469); assay: Reduction of PXR activation at 10 uM relative to rifampicin; set-up: scale not given: the % may be the effect or the level left; settings: read-out: Activity
T3 sequence (O75469 whole entry): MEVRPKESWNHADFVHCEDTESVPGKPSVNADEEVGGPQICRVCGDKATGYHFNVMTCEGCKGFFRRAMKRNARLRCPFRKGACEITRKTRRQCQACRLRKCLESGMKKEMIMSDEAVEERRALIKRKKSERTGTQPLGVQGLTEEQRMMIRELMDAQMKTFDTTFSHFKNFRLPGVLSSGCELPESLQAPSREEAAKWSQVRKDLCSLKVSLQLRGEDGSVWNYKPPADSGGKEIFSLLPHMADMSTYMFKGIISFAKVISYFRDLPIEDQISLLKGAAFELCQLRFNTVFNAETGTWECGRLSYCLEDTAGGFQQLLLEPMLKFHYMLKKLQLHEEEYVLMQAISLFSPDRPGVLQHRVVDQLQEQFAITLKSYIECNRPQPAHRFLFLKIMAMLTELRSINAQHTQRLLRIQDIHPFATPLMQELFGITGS

Row | Structure (SMILES) | activity at 10 µM
40 | Cc1cc(C(=O)NC2(C(=O)N[C@H](C)c3ncc(-c4cc(Cl)cc(Cl)c4OCC(F)F)cc3F)CC2)no1 | 28%
41 | COc1cc(C(=O)NC2(C(=O)N[C@H](C)c3ncc(-c4cc(Cl)cc(Cl)c4OCC(F)F)cc3F)CC2)on1 | 8%
42 | C[C@@H](NC(=O)C1(NC(=O)C(F)(F)F)CC1)c1ccc(-c2cc(Cl)cc(Cl)c2OCC(F)(F)F)cc1F | 45%
43 | CCOc1c(Cl)cc(Cl)cc1-c1cnc([C@@H](C)NC(=O)C2(NC(=O)c3ccno3)CC2)c(F)c1 | 15%

system: not listed separately; assay: Ratio of drug level in brain to plasma in african green monkey; assay type: ADME, organism-based; settings: chlorocebus aethiops

Row | Structure (SMILES) | Kp
44 | Cc1cc(C(=O)NC2(C(=O)N[C@H](C)c3ncc(-c4cc(Cl)cc(Cl)c4OCC(F)F)cc3F)CC2)no1 | 0.9
45 | COc1cc(C(=O)NC2(C(=O)N[C@H](C)c3ncc(-c4cc(Cl)cc(Cl)c4OCC(F)F)cc3F)CC2)on1 | 0.7
46 | CCOc1c(Cl)cc(Cl)cc1-c1cnc([C@@H](C)NC(=O)C2(NC(=O)c3ccno3)CC2)c(F)c1 | 1.4

system: not listed separately; assay: Clearance in Mongrel dog at 1 mg/kg, iv; assay type: ADME, organism-based, Canis lupus familiaris; set-up: dose 1 mg/kg, route intravenous; settings: in vivo

Row | Structure (SMILES) | clearance
47 | Cc1cc(C(=O)NC2(C(=O)N[C@H](C)c3ncc(-c4cc(Cl)cc(Cl)c4OCC(F)F)cc3F)CC2)no1 | 4.5 mL/min/kg
48 | COc1cc(C(=O)NC2(C(=O)N[C@H](C)c3ncc(-c4cc(Cl)cc(Cl)c4OCC(F)F)cc3F)CC2)on1 | 1.2 mL/min/kg
49 | CCOc1c(Cl)cc(Cl)cc1-c1cnc([C@@H](C)NC(=O)C2(NC(=O)c3ccno3)CC2)c(F)c1 | 7 mL/min/kg
